Laboratory results from patent publication US12214036B2, “Combination therapy comprising AXL/MER and PD-1/PD-L1 inhibitors” (Incyte Corporation, priority 2020, dated 2025).

Biological target: T1, MER (Homo sapiens, UniProt Q12866)
T1 sequence (Q12866 21-999): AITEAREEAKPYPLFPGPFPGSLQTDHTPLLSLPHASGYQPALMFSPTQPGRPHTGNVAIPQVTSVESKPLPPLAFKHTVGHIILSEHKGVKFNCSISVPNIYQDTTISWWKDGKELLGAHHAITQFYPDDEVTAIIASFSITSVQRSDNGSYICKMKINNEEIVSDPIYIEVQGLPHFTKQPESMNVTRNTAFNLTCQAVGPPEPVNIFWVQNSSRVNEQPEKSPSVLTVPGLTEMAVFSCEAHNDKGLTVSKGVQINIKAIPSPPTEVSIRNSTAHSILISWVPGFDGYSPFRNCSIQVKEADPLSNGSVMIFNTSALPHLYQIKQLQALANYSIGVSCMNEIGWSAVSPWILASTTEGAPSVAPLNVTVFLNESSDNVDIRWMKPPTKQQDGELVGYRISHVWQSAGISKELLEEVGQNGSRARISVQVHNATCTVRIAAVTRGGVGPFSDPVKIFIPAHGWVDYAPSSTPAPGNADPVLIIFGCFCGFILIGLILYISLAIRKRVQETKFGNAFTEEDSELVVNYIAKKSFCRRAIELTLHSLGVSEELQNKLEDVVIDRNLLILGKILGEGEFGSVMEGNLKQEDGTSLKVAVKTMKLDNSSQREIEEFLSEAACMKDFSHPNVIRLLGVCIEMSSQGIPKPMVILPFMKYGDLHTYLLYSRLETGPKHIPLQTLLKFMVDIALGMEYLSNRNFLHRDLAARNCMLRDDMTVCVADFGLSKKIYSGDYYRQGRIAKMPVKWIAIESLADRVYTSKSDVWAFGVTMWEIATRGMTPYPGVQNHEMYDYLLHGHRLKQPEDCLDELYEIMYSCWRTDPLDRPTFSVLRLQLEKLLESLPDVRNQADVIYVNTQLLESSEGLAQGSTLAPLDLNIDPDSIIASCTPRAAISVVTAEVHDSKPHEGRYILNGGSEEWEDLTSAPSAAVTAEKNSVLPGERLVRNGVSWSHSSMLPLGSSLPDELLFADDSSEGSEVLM
Assay: Phospho-MER inhibition assay in G361 cells (ELISA)
Format: cell-based
Set-up: G361 cells, a melanoma cell line expressing high level of MER kinase; endogenous in cells; host or cells: G361
Settings: G361 melanoma cells, N=2 (FIG. 3); read-out: IC50, MER phosphorylation induced by MAB8912
Experimental: The potency of Compound 1 in blocking MER auto-phosphorylation was evaluated in G361 cells, a melanoma cell line expressing high level of MER kinase.
Newly thawed G361 cells were allowed to recover for three passages before use, and only cells within 20 passages after thawing were used in the assay. Cells were kept under nonconfluent conditions and used in log-phase growth. Two mL of 1×10^6 cells/mL (2×10^6 cells/well) G361 cells were added to a six-well tissue-culture plates (Corning Incorporated; #3961) for 2 days. At the time of the assay, 1 mL of medium was added to each well. […] The optical density of the plate was measured using a Molecular Devices SpectraMax Plus microplate reader (Molecular Devices, San Jose, Calif.) at 450 nm with wavelength correction at 540 nm. Absorbance of the standards was plotted versus the concentration to generate a standard curve using four-parameter algorithm curve fitting software (SOFTmax PRO application, Molecular Devices). pMER concentrations for unknown samples were determined by extrapolation from the standard curve. IC50 values were calculated by GraphPad Prism 7.0 using a nonlinear regression sigmoidal dose-response curve with variable slope.

CC(C)C(=O)N1CCC(c2cc(-c3ccc(NC(=O)c4cn(C(C)C)c(=O)n(-c5ccccn5)c4=O)cc3)c3c(N)ncnn23)CC1 [Compound 1, N-(4-(4-Amino-7-(1-isobutyrylpiperidin-4-yl)pyrrolo[1,2-f][1,2,4]triazin-5-yl)phenyl)-1-isopropyl-2,4-dioxo-3-(pyridin-2-yl)-1,2,3,4-tetrahydropyrimidine-5-carboxamide] gave an IC50 of 8.3 ± 3.1 nM.
